The nature of data set [1]: Inhibition of Plasmodium falciparum DHODH expressed in Escherichia coli by DCIP staining-based spectrophotometric analysis.
Data set [2] can be described thus: Aqueous solubility of compound. In kind it is physicochemical. The following applies: buffer.
Data set [3] can be described thus: Intrinsic clearance in mouse liver microsomes assessed per mg protein by LC-MS analysis. In kind it is ADME, Microsome. The following applies: read-out: CLH.
In data set [4] the target is Dihydroorotate dehydrogenase (quinone), mitochondrial (Homo sapiens, UniProt Q02127). Description: Inhibition of human DHODH expressed in Escherichia coli by DCIP staining-based spectrophotometric analysis.
A short description of data set [5]: Intrinsic clearance in human liver microsomes assessed per mg protein by LC-MS analysis. Type of data set: ADME, Microsome. The following applies: read-out: CLH.
A short description of data set [6]: Cytotoxicity against mouse primary peritoneal macrophages. In kind it is cell-based, Peritoneal macrophage.
The test system of a further data set is Trypanosoma brucei. Description: Antitrypanosomal activity against Trypanosoma brucei Lister 427 bloodstream form after 48 hrs by CellTiter-Glo luminescent cell viability assay. Type of data set: functional, organism-based. The following applies: Lister 427, 48 h. On the technique in general: ATP-based viability assays read luminescence as a measure of living cells.

A further data set deals with Leishmania donovani. Kind of data set: Antileishmanial activity against Leishmania donovani MHOM/SD/62/1S-CL2D axenic amastigote after 48 hrs by CellTiter-Glo luminescent cell viability assay. Type of data set: functional, organism-based.
A further data set concerns Trypanosoma cruzi. Description: Antitrypanosomal activity against Trypanosoma cruzi Tulahuen amastigotes expressing beta-galactosidase infected in mouse NIH3T3 cells after 6 days. Type of data set: functional, organism-based. The following applies: NIH3T3, 144 h.
A short description of data set [7]: Oral bioavailability in mouse at 20 mg/kg administered as single dose. In kind it is ADME, organism-based. The following applies: in vivo.
For data set [8], the target named is Fatty acid-binding protein, adipocyte (Homo sapiens, UniProt P15090). Kind of data set: Binding affinity to recombinant FABP4 (unknown origin) expressed in Escherichia coli by sypro orange dye-based TdF assay.
Data set [9] can be described thus: Protein binding in human plasma by ultracentrifugation method. Type of data set: ADME, cell-free.
The nature of data set [10]: Lipophilicity, log D of the compound at pH 7.4 by shake flask method. Type of data set: physicochemical. The following applies: buffer.
Data set [11] in a line: Cytotoxicity against mouse NIH/3T3 cells after 5 days by CellTiter-Glo luminescent cell viability assay. In kind it is cell-based, NIH3T3.
A short description of data set [12]: Dissociation constant, pKa of compound. Type of data set: physicochemical.

The values below come from ChEMBL document CHEMBL4480398, “1,2,4-Triazolo[1,5-a]pyrimidines in drug design” (Eur J Med Chem, 2019).

In brackets after ≈: the same amount, converted by molar mass. Bounds are passed on as bounds.

Chain of Fatty acid-binding protein, adipocyte (P15090 whole entry): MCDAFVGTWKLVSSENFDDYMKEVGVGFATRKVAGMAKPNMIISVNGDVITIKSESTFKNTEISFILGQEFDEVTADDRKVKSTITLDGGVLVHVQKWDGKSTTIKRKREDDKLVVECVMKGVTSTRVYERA
Chain of Dihydroorotate dehydrogenase (quinone), mitochondrial (Q02127 whole entry): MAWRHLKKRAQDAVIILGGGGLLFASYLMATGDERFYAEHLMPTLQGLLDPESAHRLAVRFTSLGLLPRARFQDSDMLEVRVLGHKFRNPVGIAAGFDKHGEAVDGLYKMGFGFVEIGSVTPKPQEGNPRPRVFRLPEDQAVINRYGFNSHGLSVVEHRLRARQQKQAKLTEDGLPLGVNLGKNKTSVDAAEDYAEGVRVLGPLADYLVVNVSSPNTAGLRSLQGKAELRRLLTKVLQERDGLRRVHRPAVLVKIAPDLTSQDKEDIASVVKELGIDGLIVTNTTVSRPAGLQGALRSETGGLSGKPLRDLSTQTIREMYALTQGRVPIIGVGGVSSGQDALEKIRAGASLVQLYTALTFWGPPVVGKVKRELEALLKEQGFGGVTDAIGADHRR

Take `Cc1cc(Nc2cc(F)c(C(F)(F)F)c(F)c2)n2ncnc2n1`: the values for the IC50 in data set [1] and in data set [4] were 190 nM and above 30000 nM, respectively. The molecule further displayed a solubility in [2] of 9 to 18 µM (≈ 2.96 to 5.93 µg/mL). In addition, the microsomal CLint is below 6 µL/min/mg in [3] and below 5 µL/min/mg in data set [5].

The molecule `O=C(Nc1ccc(Cl)c(-c2nc3ncccc3o2)c1)c1ccco1` gave a cytotoxic concentration (CC50) in [6] above 50000 nM. Further, the concentration giving a half-maximal response (EC50) in the data set with Trypanosoma brucei came to 150000 nM; in the data set on Leishmania donovani it was 7300 nM; in the data set with Trypanosoma cruzi, 75 nM.

In turn, `Cc1nc(C)c(C(=O)Nc2ccc(F)c(-c3nc4ncc(-c5ccccn5)cn4n3)c2)o1` returned an EC50 in the data set on Trypanosoma brucei of 70 nM. In addition, the bioavailability in data set [7] is below 34%.

`O=c1cc(CNc2cccc(Cl)c2C2CC2)[nH]c2nc(-c3ccccc3)nn12`: the Kd in [8] is 20 nM.

`Cc1nc(C)c(C(=O)Nc2ccc(F)c(-c3nc4ncc(-c5ccccc5)cn4n3)c2)o1`: the results for the half-maximal effective concentration (EC50) with Trypanosoma brucei, in the data set with Leishmania donovani and in the data set with Trypanosoma cruzi were 22 nM, 71 nM and 16 nM, respectively. The bioavailability in [7] is below 34%.

Consider `Cc1cc(Nc2ccc(C(F)(F)F)nc2)n2nc(C(C)(F)F)nc2n1`, for which the fraction unbound in data set [9] (read-out: PPB) amounted to 0.5. The concentration for half-maximal inhibition (IC50) in [1] is 14 nM; in data set [4], above 100000 nM. The molecule also displayed a solubility in data set [2] above 100 µM. In [3], the microsomal CLint amounted to 5.1 µL/min/mg. In addition, in data set [10], the logD is recorded as 2.5.

On to `COc1ccc(Cl)cc1NCc1cc(=O)n2nc(-c3ccccc3)nc2[nH]1`, for which, in data set [8], the dissociation constant (Kd) turned out to be 860 nM.

For the molecule `CC(C)OC(=O)Nc1cnc2nc(-c3cc(NC(=O)c4ccco4)ccc3Cl)nn2c1`, in data set [6], the CC50 came out at 14000 nM. The EC50 with Trypanosoma brucei turned out to be 79 nM; in the data set on Leishmania donovani, 350 nM; in the data set on Trypanosoma cruzi, 55 nM. For the same molecule, in data set [11], the CC50 at 120 h is 9000 nM.

As for `Cc1c(Cl)cccc1NCc1cc(=O)n2nc(-c3ccccc3)nc2[nH]1`, in [8], the Kd is 10 nM. Besides, the pKa in [12] turned out to be 4.6.

In turn, `Cc1cc(Nc2ccc3ccccc3c2)n2ncnc2n1` yielded a solubility in data set [2] of 45 to 90 µM (≈ 12.4 to 24.8 µg/mL). In [4], this molecule came in with a concentration for half-maximal inhibition (IC50) above 200000 nM.

In data set [9], `Cc1cc(Nc2ccc(S(F)(F)(F)(F)F)cc2)n2nc(C(C)(F)F)nc2n1` [DSM-265] yielded a PPB of 90.4%. Further, half-maximal inhibition in data set [1] (IC50) required 33 nM. The same molecule returned a solubility in data set [2] of 70 to 140 µM (≈ 29.1 to 58.1 µg/mL). The microsomal CLint was 10.1 µL/min/mg in [3] and below 5 µL/min/mg in [5].

The term IC50 denotes the concentration at which inhibition is half-maximal. For orientation: solubility means the dissolved amount per volume that the medium holds. A high value points to much dissolved substance. In general, CC50 refers to the concentration at which the toxic effect on the cells reaches its halfway point. The low end stands for greater toxicity to the cells, the high end for lower toxicity to the cells. What is called EC50 is the concentration at which the effect is half-maximal. As a reminder, the bioavailability is the share of a dose that reaches the circulation, judged against a reference dose that is usually intravenous. Lower therefore signals little systemic uptake. Usually Kd stands for a measure of binding affinity in units of concentration. One may read the logD as lipophilicity at a set pH, counting ionised and neutral species. A low value points to a more hydrophilic compound. As a reminder, the pKa is the negative logarithm of the acid dissociation constant. Low values mean a group that gives up its proton readily, high ones a group that holds its proton tightly.
